Laboratory results as given in patent publication US20220395497A1, “Cancer Treatment Using Camptothecin Derivatives” (priority 2019, published 2022).
Several values for one entry are separate records, joined by “and”; a condition that tells them apart may be missing. Equal values may be shown once.

Test system: adults with recurrence of glioblastoma multiforme (GBM)
Experiment: Phase 2 open-label study of IV AR-67 (7.5 mg/m2 once daily for 5 days, 21-day cycle) in recurrent GBM: adverse events (Safety Population, NCI-CTCAE). Cohort 1 = not received or not recently failed (>90 days) bevacizumab; Cohort 2 = recently (<90 days) failed bevacizumab
Assay type: in vivo, human
Procedure: This solution was reconstituted in dextrose 5% in water to a final concentration between 0.06-0.6 mg/mL Drug (7.5 mg/m2) was to be given until the onset of toxicity requiring discontinuation or tumor progression. Tumor response was assessed=14d after every second cycle and before every third cycle using MRI.

[1] = All Patients, N = 45, possibly, probably, or definitely related

In the case of CC[C@@]1(O)C(=O)OCc2c1cc1n(c2=O)Cc2c-1nc1ccc(O)cc1c2[Si](C)(C)C(C)(C)C [AR-67, (205)-7-tert-butyldimethysilyl-10-hydroxycamptothecin], the “TEAEs associated with laboratory abnormalities assessed as Grade 4 in toxicity, events” value (All Patients) is reported as “Three”, the “headache as TEAE leading to discontinuation, patients” value (All Patients) is reported as 3 and the “patients with AR-67 permanently discontinued due to an SAE” value (All Patients) is reported as “Three”. For the same compound, the “patients with AR-67 temporarily interrupted or stopped due to an SAE” value (All Patients) was “Six”, the “patients with dose modification due to an SAE” value (All Patients) was 2 and the “thrombocytopenia, anaemia, neutropenia, and leukopenia, each occurring in % of all patients” value (All Patients) was 11-18%. For the same compound, the “Death, No of Events” value (All Patients, N = 45) was 3, the “Death, patients (%)” value (All Patients, N = 45) was “(6.7) %” and the “SAE, No of Events” value (All Patients, N = 45) was 30. The “TEAE Anaemia, patients (%)” value (All Patients, N = 45) was 15.6%, the “TEAE Confusional state, patients (%)” value (All Patients, N = 45) was 11.1% and the “TEAE Constipation, patients (%)” value (All Patients, N = 45) was 20.0%. The “TEAE Convulsion, patients (%)” value (All Patients, N = 45) was 8.9%, the “TEAE Definitely Related to AR-67, No of Events” value (All Patients, N = 45) was 55 and the “TEAE Diarrhoea, patients (%)” value (All Patients, N = 45) was 15.6%. For the same compound, the “TEAE Dizziness, patients (%)” value (All Patients, N = 45) was 11.1%, the “TEAE Dyspepsia, patients (%)” value (All Patients, N = 45) was 8.9% and the “TEAE Eye Disorders, patients (%)” value (All Patients, N = 45) was 8.9%. For the same compound, the “TEAE Flushing, patients (%)” value (All Patients, N = 45) was 11.1%, the “TEAE Gastrointestinal Disorders, patients (%)” value (All Patients, N = 45) was “(51.1) %” and the “TEAE General Disorders and Administration Site Conditions, patients (%)” value (All Patients, N = 45) was “(37.8) %”. The “TEAE Headache, patients (%)” value (All Patients, N = 45) was “(22.2) %”, the “TEAE Hiccups, patients (%)” value (All Patients, N = 45) was 11.1% and the “TEAE Hyperglycaemia, patients (%)” value (All Patients, N = 45) was 8.9%. For the same compound, the “TEAE Hypopho sphataemia, patients (%)” value (All Patients, N = 45) was 8.9%, the “TEAE Intensity Life Threatening, No of Events” value (All Patients, N = 45) was 4 and the “TEAE Intensity Life Threatening, patients (%)” value (All Patients, N = 45) was “(8.9) %”. The “TEAE Intensity Mild, No of Events” value (All Patients, N = 45) was 212/428 and 212, the “TEAE Intensity Mild, patients (%)” value (All Patients, N = 45) was “(68.9) %” and the “TEAE Intensity Moderate, No of Events” value (All Patients, N = 45) was 128/428 and 128. The “TEAE Intensity Moderate, patients (%)” value (All Patients, N = 45) was “(57.8) %”, the “TEAE Intensity Severe, No of Events” value (All Patients, N = 45) was 75 and the “TEAE Intensity Severe, patients (%)” value (All Patients, N = 45) was “(62.2) %”. For the same compound, the “TEAE Leukopenia, patients (%)” value (All Patients, N = 45) was 11.1%, the “TEAE Lymphocyte count decreased, patients (%)” value (All Patients, N = 45) was 11.1% and the “TEAE Muscular weakness, patients (%)” value (All Patients, N = 45) was 11.1%. For the same compound, the “TEAE Musculoskeletal and Connective Tissue Disorders, patients (%)” value (All Patients, N = 45) was “(28.9) %”, the “TEAE Musculoskeletal pain, patients (%)” value (All Patients, N = 45) was 6.7% and the “TEAE NCI-CTCAE Grade 1, No of Events” value (All Patients, N = 45) was 209. The “TEAE NCI-CTCAE Grade 1, patients (%)” value (All Patients, N = 45) was “(66.7) %”, the “TEAE NCI-CTCAE Grade 2, No of Events” value (All Patients, N = 45) was 119 and the “TEAE NCI-CTCAE Grade 2, patients (%)” value (All Patients, N = 45) was “(51.1) %”. The “TEAE NCI-CTCAE Grade 3, No of Events” value (All Patients, N = 45) was 82, the “TEAE NCI-CTCAE Grade 3, patients (%)” value (All Patients, N = 45) was “(66.7) %” and the “TEAE NCI-CTCAE Grade 4, No of Events” value (All Patients, N = 45) was 9. The “TEAE NCI-CTCAE Grade 4, patients (%)” value (All Patients, N = 45) was “(20.0) %”, the “TEAE Nausea, patients (%)” value (All Patients, N = 45) was 20.0% and the “TEAE Nervous System Disorders, patients (%)” value (All Patients, N = 45) was “(51.1) %”. For the same compound, the “TEAE Neutropenia, patients (%)” value (All Patients, N = 45) was 13.3%, the “TEAE Neutrophil count decreased, patients (%)” value (All Patients, N = 45) was 13.3% and the “TEAE Not Related to AR-67, No of Events” value (All Patients, N = 45) was 117. The “TEAE Platelet count decreased, patients (%)” value (All Patients, N = 45) was 8.9%, the “TEAE Possibly Related to AR-67, No of Events” value (All Patients, N = 45) was 170 and the “TEAE Probably Related to AR-67, No of Events” value (All Patients, N = 45) was 79. The “TEAE Psychiatric Disorders, patients (%)” value (All Patients, N = 45) was “(28.9) %”, the “TEAE Respiratory, Thoracic, and Mediastinal Disorders, patients (%)” value (All Patients, N = 45) was “(24.4) %” and the “TEAE Thrombocytopenia, patients (%)” value (All Patients, N = 45) was 17.8%. The “TEAE Vascular Disorders, patients (%)” value (All Patients, N = 45) was 17.8%, the “TEAE Vision blurred, patients (%)” value (All Patients, N = 45) was 8.9% and the “TEAE Vomiting, patients (%)” value (All Patients, N = 45) was 8.9%. For the same compound, the “TEAE White blood cell count decreased, patients (%)” value (All Patients, N = 45) was 11.1%, the “TEAE leading to death, No of Events” value (All Patients, N = 45) was 17 and the “TEAE leading to early discontinuation, No of Events” value (All Patients, N = 45) was 10. For the same compound, the “TEAE, No of Events” value (All Patients, N = 45) was 428, the “≥1 TEAE leading to death, patients (%)” value (All Patients, N = 45) was “(4.4) %” and the “1 related SAE, patients (%)” value [1] was “(24.4) %”. The “related SAE, No of Events” value [1] was 19/29 and 19/30 and 11/30 and 19, the “related TEAE, No of Events” value [1] was 304 and the “SAE headache, patients” value (Cohort 1) was 1. For the same compound, the “SAE infections and infestations, events” value (Cohort 1) was 4, the “SAE infections and infestations, patients” value (Cohort 1) was 3 and the “SAE nervous system disorders, events” value (Cohort 1) was 3. For the same compound, the “SAE nervous system disorders, patients” value (Cohort 1) was 3, the “SAE respiratory, thoracic and mediastinal disorders, events” value (Cohort 1) was 3 and the “SAE respiratory, thoracic and mediastinal disorders, patients” value (Cohort 1) was 2. For the same compound, the “Death, No of Events” value (Cohort 1, N = 30) was 1, the “Death, patients (%)” value (Cohort 1, N = 30) was “(3.3) %” and the “SAE, No of Events” value (Cohort 1, N = 30) was 16. For the same compound, the “TEAE Anaemia, patients (%)” value (Cohort 1, N = 30) was 23.3% and 23%, the “TEAE Blood and Lymphatic System Disorders, events” value (Cohort 1, N = 30) was 41 and the “TEAE Confusional state, patients (%)” value (Cohort 1, N = 30) was 10.0%. For the same compound, the “TEAE Constipation, patients (%)” value (Cohort 1, N = 30) was 23.3% and 23%, the “TEAE Convulsion, patients (%)” value (Cohort 1, N = 30) was 10.0% and the “TEAE Definitely Related to AR-67, No of Events” value (Cohort 1, N = 30) was 36. For the same compound, the “TEAE Definitely Related to AR-67, patients (%)” value (Cohort 1, N = 30) was “(40.0) %”, the “TEAE Diarrhoea, patients (%)” value (Cohort 1, N = 30) was 16.7% and the “TEAE Dizziness, patients (%)” value (Cohort 1, N = 30) was 16.7%. The “TEAE Dyspepsia, patients (%)” value (Cohort 1, N = 30) was 13.3%, the “TEAE Eye Disorders, patients (%)” value (Cohort 1, N = 30) was “(10.0) %” and the “TEAE Flushing, patients (%)” value (Cohort 1, N = 30) was “(16.7) %”. For the same compound, the “TEAE Gastrointestinal Disorders, patients (%)” value (Cohort 1, N = 30) was “(50.0) %”, the “TEAE General Disorders and Administration Site Conditions, patients (%)” value (Cohort 1, N = 30) was “(36.7) %” and the “TEAE Headache, patients (%)” value (Cohort 1, N = 30) was 23.3% and 23%. For the same compound, the “TEAE Hiccups, patients (%)” value (Cohort 1, N = 30) was “(10.0) %”, the “TEAE Hyperglycaemia, patients (%)” value (Cohort 1, N = 30) was “(13.3) %” and the “TEAE Hypopho sphataemia, patients (%)” value (Cohort 1, N = 30) was “(13.3) %”. The “TEAE Intensity Life Threatening, No of Events” value (Cohort 1, N = 30) was 3, the “TEAE Intensity Life Threatening, patients (%)” value (Cohort 1, N = 30) was “(10.0) %” and the “TEAE Intensity Mild, No of Events” value (Cohort 1, N = 30) was 177. For the same compound, the “TEAE Intensity Mild, patients (%)” value (Cohort 1, N = 30) was “(73.3) %”, the “TEAE Intensity Moderate, No of Events” value (Cohort 1, N = 30) was 100 and the “TEAE Intensity Moderate, patients (%)” value (Cohort 1, N = 30) was “(66.7) %”. For the same compound, the “TEAE Intensity Severe, No of Events” value (Cohort 1, N = 30) was 59, the “TEAE Intensity Severe, patients (%)” value (Cohort 1, N = 30) was “(60.0) %” and the “TEAE Investigations SOC, events” value (Cohort 1, N = 30) was 101. The “TEAE Leukopenia, patients (%)” value (Cohort 1, N = 30) was 16.7%, the “TEAE Lymphocyte count decreased, patients (%)” value (Cohort 1, N = 30) was 16.7% and the “TEAE Metabolism and Nutrition Disorders, patients (%)” value (Cohort 1, N = 30) was “(26.7) %”. For the same compound, the “TEAE Muscular weakness, patients (%)” value (Cohort 1, N = 30) was 10.0%, the “TEAE Musculoskeletal and Connective Tissue Disorders, patients (%)” value (Cohort 1, N = 30) was “(33.3) %” and the “TEAE Musculoskeletal pain, patients (%)” value (Cohort 1, N = 30) was 10.0%.
